Data: US5077289A (priority 1989, dated 1991)
Structures can show the parent of a compound that is named as a salt. Where two headings read alike, the source gives them in different places.

Key:
[1] = system: Scopolamine Induced Memory Deficit; assay: Dark Avoidance Assay (reversal of scopolamine induced memory deficit); format: in vivo; details: mice, s.c.
Protocol: In this assay mice are tested for their ability to remember an unpleasant stimulus for a period of 24 hours. A mouse is placed in a chamber that contains a dark compartment; a strong incandescent light drives it to the dark compartment, where an electric shock is administered through metal plates on the floor. The animal is removed from the testing apparatus and tested again, 24 hours later, for the ability to remember the electric shock.
If scopolamine, an anticholinergic that is known to cause memory impairment, is administered before an animal's initial exposure to the test chamber, the animal re-enters the dark compartment shortly after being placed in the test chamber 24 hours later. This effect of scopolamine is blocked by an active test compound, resulting in a greater interval before re-entry into the dark compartment.
The results for an active compound are expressed as the percent of a group of animals in which the effect of scopolamine is blocked, as manifested by an increased interval between being placed in the test chamber and re-entering the dark compartment.

[2] = system: 2-phenyl-1,4-benzoquinone-induced writhing; assay: Inhibition of phenylquinone-induced writhing in mice (PQW), analgesic activity; format: in vivo, mice (male CD-1 Charles River); details: Mus musculus, sc, read-out: ANALGESIC ACTIVITY, POW (ED50)
Protocol: Compounds I of the present invention are also useful as analgesic agents due to their ability to alleviate pain in mammals. […] Exptl. Biol. Med., 95, 729 (1957)].
A 0.125% concentration of phenyl-p-benzoquinone in a 5% aqueous solution of ethyl alcohol is administered to mice (10 mL/kg, ip). This produces a characteristic "writhe" which is defined as an inward rotation of one or more feet with twisting and turning of the trunk, drawing in of the abdominal wall, lordosis, and arching of the back. A total of 28 male CD-1 Charles River mice (18-30 g) are employed for a time-response. Animals receive food and water ad libitum during their stay in the animal quarters prior to testing. Compounds are tested at 20 mg/kg, sc and are prepared with distilled water, and if insoluble one drop of Tween-80, a surfactant is added. Compounds are administered in a dosage volume of 10 mL/kg.
Twenty mice (five per group) are administered the test compound at various pretreat time (e.g., 15, 30, 45, and 60 min) prior to phenylquinone injection. Control animals (two per group) receive an equal volume of vehicle. After the administration of phenylquinone, the mice are placed separately into 1-L beakers, and 5 min are allowed to elapse. The mice are then observed for a period of 10 min, and the number of writhers is recorded for each animal. The formula for computing percent inhibition is [formula]
The time period with the maximum percent of inhibition is considered the peak time. A dose-response is reserved for interesting compounds or those which inhibit writhing by 70% or more. A dose-response is run in the same manner as a time-response except 10 animals per group are tested at the peak time of drug activity. Fifty animals, divided among four drug groups and one vehicle control group, are employed. The mice are normally given four doses of drug, each twice the amount of the preceding dose. An ED50 is calculated by a computer linear regression analysis.
Results of this assay for some of the compounds of this invention and eseroline salicylate (reference compound) are shown in Table 3.

Brain AChE = target: T1, Brain AChE (Rattus norvegicus, UniProt P37136); assay: In vitro inhibition of acetylcholinesterase activity in rat striatum (modified Ellman); format: biochemical, rat (male Wistar)
T1 construct: brains rapidly removed, corpora striata dissected free, weighed and homogenized in 19 volumes; from tissue; host or cells: corpus striatum homogenate of male Wistar rats
T1 sequence (P37136 32-614): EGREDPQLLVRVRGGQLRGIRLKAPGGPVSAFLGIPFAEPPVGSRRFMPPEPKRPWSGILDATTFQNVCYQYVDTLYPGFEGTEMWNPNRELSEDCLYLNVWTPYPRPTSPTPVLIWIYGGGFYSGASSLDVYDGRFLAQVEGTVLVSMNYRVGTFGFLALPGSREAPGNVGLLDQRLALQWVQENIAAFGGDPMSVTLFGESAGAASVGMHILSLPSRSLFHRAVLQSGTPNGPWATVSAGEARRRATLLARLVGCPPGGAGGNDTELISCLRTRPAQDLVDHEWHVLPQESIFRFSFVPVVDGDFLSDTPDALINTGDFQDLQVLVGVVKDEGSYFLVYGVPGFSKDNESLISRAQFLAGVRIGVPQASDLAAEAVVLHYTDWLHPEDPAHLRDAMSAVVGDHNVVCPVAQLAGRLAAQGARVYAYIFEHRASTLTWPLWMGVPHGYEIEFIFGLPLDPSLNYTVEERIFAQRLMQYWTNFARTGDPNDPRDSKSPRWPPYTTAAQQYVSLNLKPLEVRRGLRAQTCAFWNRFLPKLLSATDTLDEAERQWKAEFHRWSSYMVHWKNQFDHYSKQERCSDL
Protocol: Cholinesterases are found throughout the body, both in the brain and in serum. However, only brain acetylcholinesterase (AChE) distribution is correlated with central cholinergic innervation.
This is a modification of the method of Ellman et al., Biochem. Pharmacol. 7, 98 (1961).
1. 0.05M Phosphate buffer, pH 7.2
(a) 6.85 g NaH2 PO4 .cndot.H2 O/100 ml distilled H2 O
(c) add (a) to (b) until pH reaches 7.2
(a) 9.9 mg 5,5-dithiobisnitrobenzoic acid (DTNB) (0.25 mM)
(c) q.s. to 100 ml with 0.05M phosphate buffer, pH 7.2 (reagent 1)
3. For most assays, a […] stock solution of the test drug is made up in a suitable solvent and serially diluted such that the final concentration in the preincubation step ranges from 10^-3 to 10^-6 M. Different concentrations may be used depending on the potency of the drug. […]
Following the 10 minute preincubation of the tissue (enzyme) with the inhibitor, the samples are mixed with the substrate chromogen buffer by the ABA-100. Using the indicated instrument settings the ABA-100 automatically reads the color reaction and prints out the results in enzyme units after 15 minutes.
2. The enzyme activity can also be measured with a Gilford 250 spectrophotometer. […]
The uninhibited activity of the enzyme (tissue homogenate) is first determined. […] The reaction rate is determined by the slope of the recorded absorbance change. […]

Compound	% of Animals with Scopolamine Induced Memory Deficit Reversal ([1]; 0.16 mg/kg of body weight) [%]	ED50 [2] [mg/kg]	further results
CCCNC(=O)N(CCC)C(=O)Oc1ccc2c(c1)[C@]1(C)CCN(C)[C@@H]1N2C [Example 4, (3aS-cis)-1,2,3,3a,8,8a-Hexahydro-1,3a,8-trimethylpyrrolo[2,3-b]indol-5-yl propyl[(propylamino)carbonyl] carbamate oxalate]	40		% of Animals with Scopolamine Induced Memory Deficit Reversal ([1]; 2.50 mg/kg of body weight): 36%
CN1CC[C@@]2(C)c3cc(O)ccc3N(C)[C@@H]12 [Eseroline Salicylate, reference compound]			ED50 ([2]; mice, s.c., ED50 by linear regression per method, at peak time): 0.52 mg/kg
CN(C(=O)Nc1cccc(Cl)c1)C(=O)Oc1ccc2c(c1)[C@]1(C)CCN(C)[C@@H]1N2C [Example 5, (3aS-cis)-1,2,3,3a,8,8a-Hexahydro-1,3a,8-trimethylpyrrolo[2,3-b]indol-5-yl methyl[[(3-chlorophenyl)amino]carbonyl] carbamate]		0.15	IC50 (Brain AChE): 207 nM
CNC(=O)Oc1ccc2c(c1)[C@]1(C)CCN(C)[C@@H]1N2C [Physostigmine, reference compound]			% of Animals with Scopolamine Induced Memory Deficit Reversal ([1]; 0.31 mg/kg of body weight): 20%
CNC(=O)N(C)C(=O)Oc1cc(C)c2c(c1)[C@]1(C)CCN(C)[C@@H]1N2C [Example 2, (3aS-cis)-1,2,3,3a,8,8a-Hexahydro-1,3a,7,8-tetramethylpyrrolo[2,3-b]indol-5-yl methyl[(methylamino)carbonyl] carbamate]		0.81	
CNC(=O)N(C)C(=O)Oc1ccc2c(c1)[C@]1(C)CCN(C)[C@@H]1N2C [Example 1, (3aS-cis)-1,2,3,3a,8,8a-Hexahydro-1,3a,8-trimethylpyrrolo[2,3-b]indol-5-yl methyl[(methylamino)carbonyl] carbamate]	20	8	
